According to ChEMBL document CHEMBL1201862, “PubChem BioAssay data set” (2004):
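48-hour exposure; five concentrations; linearly interpolated endpoints. GI50 = concentration required for 50% inhibition of growth.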 Activity calls are given as the source filed them. Rule as the data show it: active = GI50 up to about 1.1 µM and inactive = higher.

Legend:
Assay in all cases: growth of human tumour cells (NCI), 48 h
DMS-114 = tested on: DMS-114
NCI-H23 = tested on: NCI-H23
Malme-3M = tested on: Malme-3M
TK-10 = tested on: TK-10
K562 = tested on: K562
HOP-62 = tested on: HOP-62
HT-29 = tested on: HT-29
SNB-19 = tested on: SNB-19
NCI-H522 = tested on: NCI-H522
A549 = tested on: A549
CCRF-CEM = tested on: CCRF-CEM
KM-20L2 = tested on: KM-20L2
SF-539 = tested on: SF-539
COLO 205 = tested on: COLO 205
M14 = tested on: M14
NCI-H226 = tested on: NCI-H226
UO-31 = tested on: UO-31
HCT-116 = tested on: HCT-116
SK-OV-3 = tested on: SK-OV-3
SF-268 = tested on: SF-268
SNB-78 = tested on: SNB-78
EKVX = tested on: EKVX
SF-295 = tested on: SF-295
IGROV-1 = tested on: IGROV-1
SW-620 = tested on: SW-620
HOP-92 = tested on: HOP-92
DMS-273 = tested on: DMS-273
SR = tested on: SR
M19-MEL = tested on: M19-MEL
HCT-15 = tested on: HCT-15
A498 = tested on: A498
DLD-1 = tested on: DLD-1
OVCAR-8 = tested on: OVCAR-8
OVCAR-4 = tested on: OVCAR-4
U-251 = tested on: U-251
SK-MEL-5 = tested on: SK-MEL-5
SK-MEL-28 = tested on: SK-MEL-28
HCC 2998 = tested on: HCC 2998
RXF 631 = tested on: RXF 631
HOP-18 = tested on: HOP-18
786-0 = tested on: 786-0
UACC-257 = tested on: UACC-257
SN12C = tested on: SN12C
LXFL 529 = tested on: LXFL 529
RPMI-8226 = tested on: RPMI-8226
SNB-75 = tested on: SNB-75
MOLT-4 = tested on: MOLT-4
UACC-62 = tested on: UACC-62
OVCAR-3 = tested on: OVCAR-3
LOX IMVI = tested on: LOX IMVI
OVCAR-5 = tested on: OVCAR-5
HL-60 = tested on: HL-60
KM12 = tested on: KM12
ACHN = tested on: ACHN
RXF 393 = tested on: RXF 393
NCI-H460 = tested on: NCI-H460
XF498 = tested on: XF498
CAKI-1 = tested on: CAKI-1
SK-MEL-2 = tested on: SK-MEL-2

In the case of `Cc1ccc(-c2cc(-c3ccccc3)c(C#N)c(=O)[nH]2)cc1`, the GI50 (DMS-114) is reported as > 100 µM (inactive), the GI50 (NCI-H23) is reported as > 100 µM (inactive) and the GI50 (Malme-3M) is reported as > 100 µM (inactive). The GI50 (TK-10) was > 100 µM (inactive), the GI50 (K562) was > 100 µM (inactive) and the GI50 (HOP-62) was > 100 µM (inactive). For the same molecule, the GI50 (HT-29) was > 100 µM (inactive), the GI50 (SNB-19) was > 100 µM (inactive) and the GI50 (NCI-H522) was > 100 µM (inactive). For the same molecule, the GI50 (A549) was > 100 µM (inactive), the GI50 (CCRF-CEM) was > 100 µM (inactive) and the GI50 (KM-20L2) was > 100 µM (inactive). The GI50 (SF-539) was > 100 µM (inactive), the GI50 (COLO 205) was > 100 µM (inactive) and the GI50 (M14) was > 100 µM (inactive). For the same molecule, the GI50 (NCI-H226) was > 100 µM (inactive), the GI50 (UO-31) was > 100 µM (inactive) and the GI50 (HCT-116) was > 100 µM (inactive). The GI50 (SK-OV-3) was > 100 µM (inactive), the GI50 (SF-268) was > 100 µM (inactive) and the GI50 (SNB-78) was > 100 µM (inactive). For the same molecule, the GI50 (EKVX) was > 100 µM (inactive), the GI50 (SF-295) was > 100 µM (inactive) and the GI50 (IGROV-1) was > 100 µM (inactive). For the same molecule, the GI50 (SW-620) was > 100 µM (inactive), the GI50 (HOP-92) was 56.9 µM (inactive) and the GI50 (DMS-273) was > 100 µM (inactive). For the same molecule, the GI50 (SR) was > 100 µM (inactive), the GI50 (M19-MEL) was > 100 µM (inactive) and the GI50 (HCT-15) was greater than 100 µM. The GI50 (A498) was > 100 µM (inactive), the GI50 (DLD-1) was > 100 µM (inactive) and the GI50 (OVCAR-8) was > 100 µM (inactive). For the same molecule, the GI50 (OVCAR-4) was 79.1 µM (inactive), the GI50 (U-251) was > 100 µM (inactive) and the GI50 (SK-MEL-5) was > 100 µM (inactive). For the same molecule, the GI50 (SK-MEL-28) was > 100 µM (inactive), the GI50 (HCC 2998) was > 100 µM (inactive) and the GI50 (RXF 631) was > 100 µM (inactive). For the same molecule, the GI50 (HOP-18) was > 100 µM (inactive), the GI50 (786-0) was > 100 µM (inactive) and the GI50 (UACC-257) was > 100 µM (inactive). The GI50 (SN12C) was > 100 µM (inactive), the GI50 (LXFL 529) was > 100 µM (inactive) and the GI50 (RPMI-8226) was > 100 µM (inactive). The GI50 (SNB-75) was 53.2 µM (inactive), the GI50 (MOLT-4) was > 100 µM (inactive) and the GI50 (UACC-62) was > 100 µM (inactive). For the same molecule, the GI50 (OVCAR-3) was > 100 µM (inactive), the GI50 (LOX IMVI) was > 100 µM (inactive) and the GI50 (OVCAR-5) was > 100 µM (inactive). For the same molecule, the GI50 (HL-60) was > 100 µM (inactive), the GI50 (KM12) was > 100 µM (inactive) and the GI50 (ACHN) was > 100 µM (inactive). The GI50 (RXF 393) was > 100 µM (inactive) and the GI50 (NCI-H460) was > 100 µM (inactive).
For `COc1ccc(C(=O)C(C(=O)CCC(=O)Nc2cccc(Cl)c2)c2ccc(OC)cc2)cc1` (stereo not given), the GI50 (NCI-H23) was > 100 µM (inactive), the GI50 (Malme-3M) was > 100 µM (inactive) and the GI50 (TK-10) was > 100 µM (inactive). The GI50 (K562) was > 100 µM (inactive), the GI50 (HOP-62) was > 100 µM (inactive) and the GI50 (HT-29) was > 100 µM (inactive). The GI50 (SNB-19) was > 100 µM (inactive), the GI50 (NCI-H522) was > 100 µM (inactive) and the GI50 (A549) was > 100 µM (inactive). For the same molecule, the GI50 (CCRF-CEM) was > 100 µM (inactive), the GI50 (KM-20L2) was > 100 µM (inactive) and the GI50 (SF-539) was > 100 µM (inactive). For the same molecule, the GI50 (COLO 205) was > 100 µM (inactive), the GI50 (M14) was > 100 µM (inactive) and the GI50 (NCI-H226) was > 100 µM (inactive). The GI50 (UO-31) was > 100 µM (inactive), the GI50 (HCT-116) was > 100 µM (inactive) and the GI50 (SK-OV-3) was > 100 µM (inactive). The GI50 (SF-268) was > 100 µM (inactive), the GI50 (EKVX) was > 100 µM (inactive) and the GI50 (SF-295) was > 100 µM (inactive). For the same molecule, the GI50 (IGROV-1) was > 100 µM (inactive), the GI50 (SW-620) was > 100 µM (inactive) and the GI50 (HOP-92) was > 100 µM (inactive). The GI50 (XF498) was > 100 µM (inactive), the GI50 (DMS-273) was > 100 µM (inactive) and the GI50 (SR) was > 100 µM (inactive). The GI50 (M19-MEL) was > 100 µM (inactive), the GI50 (HCT-15) was greater than 100 µM and the GI50 (A498) was > 100 µM (inactive). For the same molecule, the GI50 (DLD-1) was > 100 µM (inactive), the GI50 (OVCAR-8) was > 100 µM (inactive) and the GI50 (OVCAR-4) was > 100 µM (inactive). For the same molecule, the GI50 (U-251) was > 100 µM (inactive), the GI50 (SK-MEL-5) was > 100 µM (inactive) and the GI50 (SK-MEL-28) was > 100 µM (inactive). For the same molecule, the GI50 (HCC 2998) was > 100 µM (inactive), the GI50 (RXF 631) was > 100 µM (inactive) and the GI50 (HOP-18) was 53.3 µM (inactive). For the same molecule, the GI50 (786-0) was > 100 µM (inactive), the GI50 (UACC-257) was > 100 µM (inactive) and the GI50 (SN12C) was > 100 µM (inactive). The GI50 (LXFL 529) was > 100 µM (inactive), the GI50 (RPMI-8226) was > 100 µM (inactive) and the GI50 (SNB-75) was 61.2 µM (inactive). The GI50 (MOLT-4) was > 100 µM (inactive), the GI50 (UACC-62) was > 100 µM (inactive) and the GI50 (CAKI-1) was > 100 µM (inactive). For the same molecule, the GI50 (SK-MEL-2) was > 100 µM (inactive), the GI50 (OVCAR-3) was > 100 µM (inactive) and the GI50 (OVCAR-5) was 9.42 µM (inactive). For the same molecule, the GI50 (HL-60) was > 100 µM (inactive), the GI50 (KM12) was > 100 µM (inactive) and the GI50 (ACHN) was > 100 µM (inactive). For the same molecule, the GI50 (NCI-H460) was > 100 µM (inactive).
`C/C(=N\NC(=S)N1CCC(C2CCN(C(=S)N/N=C(\C)c3ccccn3)CC2)CC1)c1ccccn1` was tested, and the GI50 (NCI-H23) was 59.7 µM (inactive), the GI50 (Malme-3M) was > 100 µM (inactive) and the GI50 (TK-10) was 53.8 µM (inactive). For the same molecule, the GI50 (K562) was > 100 µM (inactive), the GI50 (HOP-62) was > 100 µM (inactive) and the GI50 (HT-29) was > 100 µM (inactive). The GI50 (SNB-19) was 74.1 µM (inactive), the GI50 (NCI-H522) was 63.5 µM (inactive) and the GI50 (A549) was 55 µM (inactive). The GI50 (CCRF-CEM) was > 100 µM (inactive), the GI50 (KM-20L2) was > 100 µM (inactive) and the GI50 (SF-539) was 51.3 µM (inactive). The GI50 (COLO 205) was > 100 µM (inactive), the GI50 (M14) was > 100 µM (inactive) and the GI50 (NCI-H226) was 60.7 µM (inactive). The GI50 (UO-31) was > 100 µM (inactive), the GI50 (HCT-116) was 29.2 µM (inactive) and the GI50 (SK-OV-3) was 38.4 µM (inactive). For the same molecule, the GI50 (SF-268) was > 100 µM (inactive), the GI50 (SNB-78) was 44.3 µM (inactive) and the GI50 (EKVX) was > 100 µM (inactive). For the same molecule, the GI50 (SF-295) was 71.3 µM (inactive), the GI50 (IGROV-1) was 68.7 µM (inactive) and the GI50 (SW-620) was > 100 µM (inactive). The GI50 (HOP-92) was 37.8 µM (inactive), the GI50 (XF498) was 35 µM (inactive) and the GI50 (DMS-273) was 64.1 µM (inactive). The GI50 (M19-MEL) was > 100 µM (inactive), the GI50 (A498) was > 100 µM (inactive) and the GI50 (DLD-1) was > 100 µM (inactive). The GI50 (OVCAR-8) was 46.7 µM (inactive), the GI50 (OVCAR-4) was > 100 µM (inactive) and the GI50 (U-251) was 34.1 µM (inactive). For the same molecule, the GI50 (SK-MEL-5) was 62.4 µM (inactive), the GI50 (SK-MEL-28) was > 100 µM (inactive) and the GI50 (HCC 2998) was > 100 µM (inactive). The GI50 (RXF 631) was > 100 µM (inactive), the GI50 (HOP-18) was > 100 µM (inactive) and the GI50 (786-0) was 45.4 µM (inactive). For the same molecule, the GI50 (UACC-257) was > 100 µM (inactive), the GI50 (SN12C) was 86.3 µM (inactive) and the GI50 (LXFL 529) was 55.3 µM (inactive). For the same molecule, the GI50 (RPMI-8226) was > 100 µM (inactive), the GI50 (SNB-75) was 28.2 µM (inactive) and the GI50 (UACC-62) was > 100 µM (inactive). For the same molecule, the GI50 (CAKI-1) was 68.1 µM (inactive), the GI50 (OVCAR-3) was 60.3 µM (inactive) and the GI50 (LOX IMVI) was 68.9 µM (inactive). The GI50 (OVCAR-5) was > 100 µM (inactive), the GI50 (HL-60) was > 100 µM (inactive) and the GI50 (KM12) was > 100 µM (inactive). The GI50 (ACHN) was 53.7 µM (inactive), the GI50 (RXF 393) was 71.8 µM (inactive) and the GI50 (NCI-H460) was > 100 µM (inactive).
